The values below come from publication PMC3430861, “The pharmacological profile of ELIC, a prokaryotic GABA-gated receptor” (Neuropharmacology, 2012).

Read-outs that look alike come from different tables or passages of the source.

Assay [1] deals with T1, ELIC (Dickeya chrysanthemi, UniProt P0C7B7).
T1 sequence (P0C7B7 8-321): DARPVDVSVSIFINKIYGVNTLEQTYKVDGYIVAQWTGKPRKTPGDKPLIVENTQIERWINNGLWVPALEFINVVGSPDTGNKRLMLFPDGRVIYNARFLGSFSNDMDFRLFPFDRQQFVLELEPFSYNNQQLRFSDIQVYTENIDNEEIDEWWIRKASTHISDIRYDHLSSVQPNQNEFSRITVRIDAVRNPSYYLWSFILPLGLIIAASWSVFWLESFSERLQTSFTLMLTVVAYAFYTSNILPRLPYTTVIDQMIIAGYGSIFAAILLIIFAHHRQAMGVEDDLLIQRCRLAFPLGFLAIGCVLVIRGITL
Nature of the assay: cell-based. It counts as cell-based, Erwinia chrysanthemi. As for the experimental part:
Xenopus laevis oocyte-positive females were purchased from NASCO (Fort Atkinson, Wisconsin, USA) and maintained according to standard methods. Harvested stage V–VI Xenopus oocytes were washed in four changes of ND96 (96 mM NaCl, 2 mM KCl, 1 mM MgCl2, 5 mM HEPES, pH 7.5), de-folliculated in 1.5 mg ml^−1 collagenase Type 1A for approximately 2 h, washed again in four changes of ND96 and stored in ND96 containing 2.5 mM sodium pyruvate, […], 0.7 mM theophylline.
(§1) The ELIC sequence (Genbank accession number POC7B7) was purchased from Genscript as a synthetic gene with optimized codon usage for expression in Escherichia coli. […] Stage V and VI oocytes were injected with 20 ng cRNA, and currents recorded 1–3 days post-injection.

A further assay relates to GLIC. On the set-up: method as in Alqazzaz et al., 2011. Particulars: comparison ELIC vs GLIC; ref Alqazzaz et al., 2011; cited from earlier work.
Assay [2] addresses T1, ELIC. Description: Inhibition of cysteamine-induced ELIC responses. Type of assay: cell-based, Erwinia chrysanthemi. The conditions noted are these: data not shown.
Assay [3] deals with T2, ELIC (Dickeya chrysanthemi, UniProt P0C7B7, INS163G).
T2 construct: expressed in transfected cells; host or cells: Xenopus laevis oocytes injected with cRNA
Nature of the assay: cell-based. Type of assay: cell-based, Erwinia chrysanthemi. As for the experimental part: Xenopus laevis oocyte-positive females were purchased from NASCO (Fort Atkinson, Wisconsin, USA) and maintained according to standard methods.
as §1

Assay [4] concerns RDL, a GABA-activated insect receptor. On the set-up: method as in McGonigle and Lummis, 2010. The conditions noted are these: ref McGonigle and Lummis, 2010, cited from earlier work.

The IC50 is the concentration that inhibits the measured activity by half. As for `CC(N)C12CC3CC(CC(C3)C1)C2` (centres unmarked) [Rimantadine], on ELIC [1], the “inhibition of ELIC (yes/no)” value is listed as “inhibiting both receptors”. Also, the nH on ELIC [1] was determined as 1.0 ± 0.2. Also, the IC50 was 54 µM on ELIC [1] (IC50) and 53.7 µM against ELIC [1] (pIC50 (Mean ± SEM)). Besides, the “inhibition of GLIC (yes/no)” value in the assay on GLIC is given as “inhibiting both receptors”. Further, on ELIC [2], the “inhibition of cysteamine-induced responses compared to inhibition of GABA-induced responses” value was “no significant differences”.

Consider `C=C(C)[C@@H]1[C@H]2OC(=O)[C@@H]1[C@]1(O)C[C@H]3O[C@]34C(=O)O[C@H]2[C@]14C` [Picrotoxinin], for which the nH at ELIC [1] (Hill coefficient of inhibition curve) was determined as 1.2 ± 0.6. Besides, the IC50 is 96 µM on ELIC [1] (IC50, wild type ELIC, at the GABA EC50 (1.6 mM)) and 87.1 µM at ELIC [1] (pIC50 (Mean ± SEM), wild type ELIC, at the GABA EC50 (1.6 mM)). The “inhibition of ELIC (yes/no)” value on ELIC [1] (comparison ELIC vs GLIC) is “inhibiting both receptors”. Moreover, the “inhibition of GLIC (yes/no)” value in the assay with GLIC is given as “inhibiting both receptors”. Also, at ELIC [2], the “inhibition of cysteamine-induced responses compared to inhibition of GABA-induced responses” value is reported as “no significant differences”.

For `O=C(O)CCCO` [γ-hydroxybutyric acid], the “concentration required to activate ELIC” value on ELIC [3] was greater than 10 mM. Moreover, at ELIC [3] (100 mM, Rmax = maximal current relative to 10mM GABA), the “% of Rmax at 100 mM” value is reported as 8.2 ± 3% of Rmax at 100 mM. The “effect on RDL” value in assay [4] is reported as “no effect”.

Take `N#Cc1nn(-c2c(Cl)cc(C(F)(F)F)cc2Cl)c(N)c1[S+]([O-])C(F)(F)F` (centres unmarked) [Fipronil]: at ELIC [1], the “inhibition of ELIC (yes/no)” value is “inhibiting both receptors” and the nH amounted to 1.8 ± 0.4. Moreover, on ELIC [1] (IC50), the IC50 is 350 µM. The molecule also gave a half-maximal inhibitory concentration (IC50) against ELIC [1] (pIC50 (Mean ± SEM)) of 347 ± 4.01 µM. The “inhibition of GLIC (yes/no)” value in the assay on GLIC is “inhibiting both receptors”.

A word on the EC50: it is the midpoint of the concentration-response curve. Turning to `NCCCCC(=O)O` [5-aminovaleric acid], the “concentration required to activate ELIC” value on ELIC [3] is greater than 10 mM. In addition, in assay [4] (RDL), the half-maximal effective concentration (EC50) is 1100 µM and the Rmax is 0.85.
